In US7927581B2, “Peptide-based multimeric targeted contrast agents” (Factor 1A, LLC, priority 2001, dated 2011):
Read-outs that look alike come from different tables or passages of the source. Positions of bridges follow the written chain, without caps; N, C: chain ends. Non-standard residues stand in square brackets, D forms with d. Residues, ends and D or L forms follow the SMILES beside them. *: point of attachment. FITC = O=C1OC2(c3ccc(O)cc3Oc3cc(O)ccc32)c2ccc(NC(=S)*)cc21; Tyr(3-I) = N[C@@H](Cc1ccc(O)c(I)c1)C(=O)O; Hyp = O=C(O)[C@@H]1C[C@@H](O)CN1; Ahx = NCCCCCC(=O)O

Assays:
[1] = Stability in rat liver homogenate; format: in vitro ADME; conditions: 37° C., LC-MS; for half-life: tissue homogenate
Description: Stability was assayed using rat liver homogenate, which contains both intra- and extracellular enzymes and represents a particularly harsh chemical environment for peptide bonds. Freshly prepared rat liver homogenate (630 μL) was placed in a glass test tube and incubated at 37° C. in a water bath for 4 minutes. To the rat liver homogenate at 37° C. was added 70 μL of a 1 mM solution of test compound. At time points 0, 5, 15, 30, and 60 minutes, a 100 μL aliquot of the reaction mixture was removed and mixed with 100 μL of methanol in a microfuge tube to quench the reaction. The quenched reaction mixture was centrifuged for 3 minutes at 10,000 rpm to pellet the precipitated protein. The supernatant was analyzed by LC-MS to quantitate the amount of test compound remaining by comparing the area of the single ion MS peak to that of a series of standards. Half life (T1/2) was determined by plotting log percent signal remaining vs. time. The data were fit using an exponential curve fit, wherein T1/2=In2/slope.

fibrin DD(E) fragment = fibrin DD(E) fragment (Homo sapiens, UniProt P02671+P02675+P02679); test: Fibrin DD(E) fragment affinity of optical contrast agents; format: binding
Description: NovaSyn TGR resin (0.20 mmol/g, 100 mg, 20 μmol) was washed with NMP/ether/NMP. The peptide was assembled by the standard solid phase method using the PyBOP/HOBt/DIEA activation. After the coupling of the final amino acid residue, the resin bound peptide was treated with a solution of piperidine in DMF (20% by volume, 2.0 mL) for 10 minutes to remove the Fmoc protecting group. The resin was washed thoroughly with NMP/ether/NMP, and was treated with a solution of fluorascein-5-isothiocyanate (23.4 mg, 60 μmol) and duisopropylethylamine (11.6 mg, 15.7 μL, 90 μmol) in DMF (1.5 mL) for 12 hours. The resin was washed thoroughly (NMP/ether/NMP), and treated with a solution of Tl (TFA)3 (18.7 mg, 34.5 μmol) in DMF (1.5 mL) at 4° C. for three hours. The resin was washed after this treatment, and treated with a cocktail of TFA/TIS/water (95/2.5/2.5, 2.0 mL) for two hours. The crude peptide was precipitated by adding ether to the cleavage cocktail, and purified by preparative HPLC using a Vydac C-18 column. Structures A-N were formed in this manner and their fibrin DD(E) fragment affinities were determined (Table 5).
N-terminal labeling of the peptides with optical probes can modulate the binding affinity of the optical contrast agents. For example, when comparing fluorescein, 4-methoxycoumarin and tetramethylrhodamine derivatives of the peptide (QWECPYGLCWIQ (SEQ ID NO:27); Kd=3 μM) the following Kd's were observed (Table 6): […]

[2] = fluorescein-labeled peptides, read-out: Kd (μM) Vs. DD(E)

Sequence of fibrin DD(E) fragment (P02671 124-216): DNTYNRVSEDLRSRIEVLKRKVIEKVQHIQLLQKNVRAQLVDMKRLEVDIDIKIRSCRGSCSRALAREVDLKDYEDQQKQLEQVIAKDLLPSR
Sequence of fibrin DD(E) fragment (P02675 164-491): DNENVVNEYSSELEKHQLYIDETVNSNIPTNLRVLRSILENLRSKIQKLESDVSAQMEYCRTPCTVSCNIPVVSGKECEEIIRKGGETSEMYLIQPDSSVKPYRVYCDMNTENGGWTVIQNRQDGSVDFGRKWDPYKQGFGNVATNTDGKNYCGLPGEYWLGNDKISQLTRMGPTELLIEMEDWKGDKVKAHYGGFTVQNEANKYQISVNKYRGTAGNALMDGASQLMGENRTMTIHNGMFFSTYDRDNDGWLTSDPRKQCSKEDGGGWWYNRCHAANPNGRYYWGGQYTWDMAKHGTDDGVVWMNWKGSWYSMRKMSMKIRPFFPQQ
Sequence of fibrin DD(E) fragment (P02679 114-432): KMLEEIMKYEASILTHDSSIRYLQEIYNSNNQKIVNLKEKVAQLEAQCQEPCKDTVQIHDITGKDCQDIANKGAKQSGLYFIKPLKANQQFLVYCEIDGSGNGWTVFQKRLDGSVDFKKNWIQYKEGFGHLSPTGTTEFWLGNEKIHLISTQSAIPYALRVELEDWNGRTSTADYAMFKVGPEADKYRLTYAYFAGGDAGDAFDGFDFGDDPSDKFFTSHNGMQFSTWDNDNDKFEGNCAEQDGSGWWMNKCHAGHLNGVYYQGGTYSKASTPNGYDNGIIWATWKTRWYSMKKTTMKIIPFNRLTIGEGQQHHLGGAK
Sequence of fibrin DD(E) fragment (P02671 36-97): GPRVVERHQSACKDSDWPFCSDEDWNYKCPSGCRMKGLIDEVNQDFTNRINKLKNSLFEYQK
Sequence of fibrin DD(E) fragment (P02675 45-152): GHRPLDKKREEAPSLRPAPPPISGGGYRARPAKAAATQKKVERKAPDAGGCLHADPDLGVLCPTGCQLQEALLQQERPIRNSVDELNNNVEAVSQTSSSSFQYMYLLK
Sequence of fibrin DD(E) fragment (P02679 27-88): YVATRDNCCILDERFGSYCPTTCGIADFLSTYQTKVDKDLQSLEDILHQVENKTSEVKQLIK

| SMILES | half-life [1] | Kd (fibrin DD(E) fragment; [2]) | further results |
| --- | --- | --- | --- |
| CC(C)C[C@H](NC(=O)[C@@H]1CSSC[C@H](NC(=O)[C@@H]2CCCN2C(=O)[C@H](CC(C)C)NC(=O)C(CNC(=O)C(CN(CCN(CC(=O)O)CC(=O)O)CC(=O)O)N(CC(=O)O)CC(=O)O)NC(=O)C(CN(CCN(CC(=O)O)CC(=O)O)CC(=O)O)N(CC(=O)O)CC(=O)O)C(=O)N[C@@H](CC(=O)O)C(=O)N[C@@H](Cc2ccc(O)cc2)C(=O)N[C@@H](Cc2ccc(O)cc2)C(=O)NCC(=O)N[C@@H]([C@@H](C)O)C(=O)N1)C(=O)N[C@@H](CC(=O)O)C(=O)NCc1ccc(CNC(=O)C(CNC(=O)C(CN(CCN(CC(=O)O)CC(=O)O)CC(=O)O)N(CC(=O)O)CC(=O)O)NC(=O)C(CN(CCN(CC(=O)O)CC(=O)O)CC(=O)O)N(CC(=O)O)CC(=O)O)cc1 (stereo partly shown) [Compound 5] | 65 min | – | – |
| C=NOCC(=O)NCCN(CCN(CCNC(=O)CO/N=C/C(=O)N[C@@H](CC(C)C)C(=O)N1CCC[C@H]1C(=O)N[C@H]1CSSC[C@@H](C(=O)N[C@@H](Cc2ccc(-c3ccccc3)cc2)C(=O)N[C@@H](CC(=O)O)C(N)=O)NC(=O)[C@H]([C@@H](C)O)NC(=O)CNC(=O)[C@H](Cc2ccc(O)cc2)NC(=O)[C@H](Cc2ccc(O)cc2)NC(=O)[C@H](CC(=O)O)NC1=O)C(=O)C(CNC(=O)CN(CCN(CCN(CC(=O)O)CC(=O)O)CC(=O)O)CC(=O)O)NC(=O)CN(CCN(CCN(CC(=O)O)CC(=O)O)CC(=O)O)CC(=O)O)C(=O)C(CNC(=O)CN(CCN(CCN(CC(=O)O)CC(=O)O)CC(=O)O)CC(=O)O)NC(=O)CN(CCN(CCN(CC(=O)O)CC(=O)O)CC(=O)O)CC(=O)O (stereo partly shown) [Structure 2] | 10 min | – | – |
| CC(C)C[C@H](NC(=O)[C@@H]1CSSC[C@H](NC(=O)[C@@H]2CCCN2C(=O)[C@@H](N)CC(C)C)C(=O)N[C@@H](CC(=O)O)C(=O)N[C@@H](Cc2ccc(O)cc2)C(=O)N[C@@H](Cc2ccc(O)cc2)C(=O)NCC(=O)N[C@@H](C(C)O)C(=O)N1)C(=O)N[C@@H](CC(=O)O)C(N)=O (stereo partly shown) [Structure 1] | – | – | half-life at 100 µM [1]: < 2 min |
| CC[C@H](C)[C@H](NC(=O)[C@H](Cc1c[nH]cn1)NC(=O)[C@@H]1CSSC[C@H](NC(=O)[C@H](Cc2c[nH]cn2)NC(=O)[C@H](Cc2ccccc2)NC(=O)CNC(=O)CNC(=O)CCCCCNC(=S)Nc2ccc3c(c2)C(=O)OC32c3ccc(O)cc3Oc3cc(O)ccc32)C(=O)N2C[C@H](O)C[C@H]2C(=O)N[C@@H](Cc2ccc(O)c(I)c2)C(=O)N[C@@H](CC(=O)O)C(=O)N[C@@H](CC(C)C)C(=O)N1)C(N)=O [E] ({FITC-Ahx}-GGFHC[Hyp][Tyr(3-I)]DLCHI-NH2; disulfide 5-10) | – | 0.09 µM | – |
| CC[C@H](C)[C@H](NC(=O)[C@H](Cc1c[nH]cn1)NC(=O)[C@@H]1CSSC[C@H](NC(=O)[C@H](Cc2c[nH]cn2)NC(=O)[C@H](Cc2ccccc2)NC(=O)[C@H](Cc2c[nH]c3ccccc23)NC(=S)Nc2ccc3c(c2)C(=O)OC32c3ccc(O)cc3Oc3cc(O)ccc32)C(=O)N2CCC[C@H]2C(=O)N[C@@H](Cc2ccc(O)cc2)C(=O)N[C@@H](CC(=O)O)C(=O)N[C@@H](CC(C)C)C(=O)N1)C(=O)N[C@@H](CC(C)C)C(N)=O [Compound K] (HELM PEPTIDE1{[O=C1OC2(c3ccc(O)cc3Oc3cc(O)ccc32)c2ccc(NC(=S)[*:2])cc21].W.F.H.C.P.Y.D.L.C.H.I.L.[am]}$PEPTIDE1,PEPTIDE1,5:R3-10:R3$$$V2.0) | – | 0.06 µM | – |
| CC[C@H](C)[C@H](NC(=O)[C@H](Cc1c[nH]c2ccccc12)NC(=O)[C@@H]1CSSC[C@H](NC(=O)[C@H](CCC(=O)O)NC(=O)[C@H](Cc2c[nH]c3ccccc23)NC(=O)[C@H](CCC(N)=O)NC(=S)Nc2ccc3c(c2)C(=O)OC32c3ccc(O)cc3Oc3cc(O)ccc32)C(=O)N2CCC[C@H]2C(=O)N[C@@H](Cc2ccc(O)cc2)C(=O)NCC(=O)N[C@@H](CC(C)C)C(=O)N1)C(=O)N[C@@H](CCC(N)=O)C(N)=O [J] (HELM PEPTIDE1{[O=C1OC2(c3ccc(O)cc3Oc3cc(O)ccc32)c2ccc(NC(=S)[*:2])cc21].Q.W.E.C.P.Y.G.L.C.W.I.Q.[am]}$PEPTIDE1,PEPTIDE1,5:R3-10:R3$$$V2.0) | – | 0.055 µM | Kd (fibrin DD(E) fragment; fluorophore derivatives of QWECPYGLCWIQ, no unit in Table 6, read-out: Kd): 0.06 µM |
| CC(C)C[C@H](NC(=O)[C@@H]1CSSC[C@H](NC(=O)[C@@H]2CCCN2C(=O)[C@H](CC(C)C)NC(=O)c2ccc(-c3ccccc3)cc2)C(=O)N[C@@H](CC(=O)O)C(=O)N[C@@H](Cc2ccc(O)cc2)C(=O)N[C@@H](Cc2ccc(O)cc2)C(=O)NCC(=O)N[C@@H]([C@@H](C)O)C(=O)N1)C(=O)N[C@@H](CC(=O)O)C(=O)NCCN(CCN(CCN)C(=O)C(CNC(=O)CN(CCN(CCN(CC(=O)O)CC(=O)O)CC(=O)O)CC(=O)O)NC(=O)CN(CCN(CCN(CC(=O)O)CC(=O)O)CC(=O)O)CC(=O)O)C(=O)C(CNC(=O)CN(CCN(CCN(CC(=O)O)CC(=O)O)CC(=O)O)CC(=O)O)NC(=O)CN(CCN(CCN(CC(=O)O)CC(=O)O)CC(=O)O)CC(=O)O (stereo partly shown) [Structure 3] | 9 min | – | – |
| CC[C@H](C)[C@H](NC(=O)[C@H](Cc1c[nH]cn1)NC(=O)[C@@H]1CSSC[C@H](NC(=O)[C@H](Cc2c[nH]cn2)NC(=O)[C@H](Cc2ccccc2)NC(=O)CNC(=O)CCCCCNC(=S)Nc2ccc3c(c2)C(=O)OC32c3ccc(O)cc3Oc3cc(O)ccc32)C(=O)N2C[C@H](O)C[C@H]2C(=O)N[C@@H](Cc2ccc(O)c(I)c2)C(=O)N[C@@H](CC(=O)O)C(=O)N[C@@H](CC(C)C)C(=O)N1)C(N)=O [C] ({FITC-Ahx}-GFHC[Hyp][Tyr(3-I)]DLCHI-NH2; disulfide 4-9) | – | 0.097 µM | – |
| CC[C@H](C)[C@H](NC(=O)[C@H](Cc1c[nH]cn1)NC(=O)[C@@H]1CSSC[C@H](NC(=O)[C@H](Cc2c[nH]cn2)NC(=O)[C@H](Cc2ccccc2)NC(=O)[C@H](Cc2c[nH]c3ccccc23)NC(=O)CCCCCNC(=S)Nc2ccc3c(c2)C(=O)OC32c3ccc(O)cc3Oc3cc(O)ccc32)C(=O)N2C[C@H](O)C[C@H]2C(=O)N[C@@H](Cc2ccc(O)c(I)c2)C(=O)N[C@@H](CC(=O)O)C(=O)N[C@@H](CC(C)C)C(=O)N1)C(N)=O [D] ({FITC-Ahx}-WFHC[Hyp][Tyr(3-I)]DLCHI-NH2; disulfide 4-9) | – | 0.061 µM | – |
